EP4623906A1, “OPHTHALMIC FORMULATION COMPRISING PYRIDINE PHENYL COMPOUND, PREPARATION METHOD THEREFOR, AND USE THEREOF” (Zhuhai United Laboratories Co., Ltd., priority 2022, dated 2024)

Experiments:
Type in all cases: physicochemical
[1] = Preliminary stability of eye drops with antimicrobial preservatives, in the dark at 25°C and 40°C for 5 days (Examples 52, 55, 56); settings: Compound of Formula (IX), 0 h
Method: According to the prescription ratio in Table 11, the active compound of formula (IX) was weighed, and dispersed in isopropanol with stirring until the solution was clear. HP-β-CD was slowly added under stirring, until the solution was clear. Purified water in the prescribed ratio was slowly added to the isopropanol solution under stirring, and stirred for 1 hour to obtain a clear solution. The above solution was freeze-dried in a vacuum freeze dryer to obtain a loose white freeze-dried powder. Freeze-dried powder of the inclusion compound was dissolved in a re-dissolving medium, and successively filtered through 0.45 µm and 0.22 µm mixed filter membrane to obtain active compound eye drops, and filled in a sample packaging of 2 mL per bottle, to obtain eye drops.
For multi-dose packaged eye drops, the addition of antimicrobial preservatives is needed to avoid microbial contamination during use. The effects of two antimicrobial preservatives, benzalkonium chloride and chlorhexidine acetate, on prescription stability were investigated through Examples 52, 55, and 56. The preliminary stability of eye drops from Example 52, Example 55, and Example 56 was investigated by placing them in the dark at 25°C and 40°C for 5 days.

[2] = Solubilization trials of compound of formula (IX) with different solubilizing agents, grinding and heating (Examples 1-11)
Method: Examples 1-11 were prepared according to the specific processes in Table 1. […]

[3] = Preliminary compatibility of packaging materials, in the dark at 25°C (Examples 52-54); set-up: unit not given here; settings: Compound of Formula (IX) itself
Method: Examples 53 and 54 were packaged in low-density polyethylene (PE) pharmaceutical eye drops bottles, brown polyester (PET) pharmaceutical eye drops bottles and ampoules, respectively. They were placed in the dark at 25°C to investigate the preliminary compatibility of the packaging materials.

CC(C)(O)c1ccc(-c2cnc(C(C)(C)O)c(N)c2)cc1N [Compound of Formula (IX)]
Peak at retention time 19.6 min, relative retention time 1.00 [1]: 93.14 | Peak at retention time 20.2 min, relative retention time 1.03 [1]: 0.16 | Peak at retention time 21.1 min, relative retention time 1.08 [1]: 0.39 | Peak at retention time 21.5 min, relative retention time 1.10 [1]: 0.41 | Peak at retention time 23.8 min, relative retention time 1.21 [1]: 0.11 | Peak at retention time 24.0 min, relative retention time 1.22 [1]: 2.41 | Peak at retention time 24.5 min, relative retention time 1.25 [1]: 0.50 | Peak at retention time 24.7 min, relative retention time 1.26 [1]: 0.25 | Peak at retention time 24.8 min, relative retention time 1.27 [1]: 0.12 | Peak at retention time 25.6 min, relative retention time 1.31 [1]: 0.09 | Peak at retention time 26.0 min, relative retention time 1.33 [1]: 0.15 | Peak at retention time 26.2 min, relative retention time 1.34 [1]: 2.15 | Peak at retention time 28.3 min, relative retention time 1.44 [1]: 0.13 | Solubility in water [2]: insoluble or almost insoluble | Impurity RRT 0.44 [3]: 0.06 | Impurity RRT 1.17 [3]: 0.05 | Impurity RRT 1.29 [3]: 0.20 | Impurity RRT 1.34 [3]: 0.10 | Impurity RRT 1.55 [3]: 0.07 | Impurity RRT 1.59 [3]: 0.02 | Impurity RRT 1.66 [3]: 0.04 | Impurity RRT 1.75 [3]: 0.04 | Impurity RRT 1.81 [3]: 0.03 | Impurity RRT 1.84 [3]: 0.25 | Impurity RRT 1.89 [3]: 0.04 | Impurity RRT 1.97 [3]: 0.03 | Impurity RRT 2.10 [3]: 0.09 | Impurity RRT 2.19 [3]: 0.21 | Impurity RRT 2.23 [3]: 0.02 | Impurity RRT 2.27 [3]: 0.03 | Total impurity [3]: 1.03
